Like-named read-outs stand apart in the source and are kept apart here.
What was measured:
[1] = tested on: T. cruzi blood trypomastigotes of the Y strain; assay: in vivo anti-T. cruzi study (acute Chagas model); set-up: species or system Trypanosoma cruzi; details: BALB/c mice, 50 mg/kg/day oral for 14 days; for Number of Parasites (Chagas): peak of parasitemia; for % of Reduction (Chagas): reduction of parasitemia vs control
[2] = tested on: J774.1 murine macrophages; assay: nonspecific cytotoxicity on mammalian cells, MTT; type: cell-based; details: for IC50: Mus musculus, J774.1, 48 h, MTT, read-out: IC50 ± SD (µM) Murine Macrophages; for SI J774.1/T. cruzi: ratio IC50 murine macrophages / IC50 T. cruzi epimastigotes; for SI J774.1/L. amazonensis: ratio IC50 murine macrophages / IC50 L. amazonensis promastigotes
[3] = tested on: promastigotes L. braziliensis/ L. amazonensis; assay: in vitro anti-Leishmania activity, promastigotes (Table 1S); type: cell-based; details: read-out: IC50 ± %SD (µM) promastigotes L. braziliensis/ L. amazonensis
[4] = tested on: L. infantum (MHOM/BR/2002/LPC-RPV) promastigotes; assay: in vitro anti-Leishmania activity, promastigotes, resazurin; type: cell-based, Leishmania infantum
[5] = tested on: L. infantum .uy (parasites isolated from two dogs in the first Leishmaniasis outbreak in Uruguay); assay: in vitro activity against L. infantum isolated from dogs in Uruguay; type: cell-based, Leishmania infantum; details: for IC50: Leishmania infantum, read-out: IC50 ± %SD (µM) L. infantum .uy
Method: Compounds were dissolved in dimethylsulfoxide (DMSO).
For assessing the amastigote form of all Leishmania strains were cultured in the RPMI described above. Parasites were seeded at 1 × 10^6 cells/mL and at each time point counted at least five times to obtain a growth curve. […] Control conditions of parasites without drug (100% growth) and medium without parasites were included. After 72 h at 28 °C parasite viability was determined by the resazurin method described. Infection with L. infantum. THP-1 monocytes (ATCC®TIB-202™) were grown following ATCC recommendations and seeded at 30,000 cells/well onto 18-mm round glass coverslips in 12 wells. For stimulation cells were incubated with 100 nM of PMA for 48 h, PMA was washed and cells left with growth media for 24 h more after incubation with parasites. 30,000 parasites/well were added and left to interact. After 48 h, coverslips were washed with PBS, fixed with 95% (v/v) ethanol, and stained with Fluoroshield™ with DAPI (Sigma). Infectivity was assessed considering invasion and replication capacity counting infected cells and parasites per infected cell, respectively. Infectivity index calculation = (% of infected cells X (amastigotes per cell))/number of total counted cells. Image acquisition was made with a Leica TCS-SP5 laser scanning confocal microscope (Leica Microsystems GmbH, Wetzlar, Germany) using the LASAF v.2 software (Leica Microsystems, Wetzlar, Germany) and observed using a 356 nm laser excitation line and an emission bandwidth from 461 nm under a 20× water immersion objective. Further image analysis, including quantitation and processing of figures were made using Fiji (http://fiji.sc/).

[6] = tested on: L. amazonensis (promastigotes); assay: in vitro anti-Leishmania activity, promastigotes, resazurin; type: cell-based; details: maximum dose tested 25 µM, read-out: IC50 ± %SD (µM) L. amazonensis
[7] = tested on: T. cruzi epimastigotes, Tulahuen 2 strain (genotype TcVI); assay: in vitro anti-T. cruzi activity, epimastigote growth (absorbance 600 nm); type: cell-based, Trypanosoma cruzi
Method: Control parasites were cultivated in 0.4% DMSO. Each concentration of the compound was evaluated in duplicate.

[8] = tested on: L. infantum, L. braziliensis, L. amazonensis promastigotes and T. cruzi epimastigotes; assay: phenotypic screening against parasites in vitro (overall statements)
Method: For the in vitro anti-T. cruzi activity, we used epimastigotes of the Tulahuen 2 strain (genotype TcVI) grown in an axenic milieu (BHI-Tryptose). Cells from a 5–7-days-old culture were inoculated in fresh culture milieu to give an initial concentration of 10^6 cells/mL. The absorbance at 600 nm of the cells in culture was measured every day. […] Control parasites were cultivated in 0.4% DMSO. Each concentration of the compound was evaluated in duplicate. At five days, the absorbance of the culture was measured and compared to the control and the IC50 values calculated for each compound using OriginLab8.5® sigmoidal regression.

[9] = tested on: primary culture of macrophages from mice bone marrow; assay: cytotoxicity on primary culture of macrophages, MTT; type: cell-based; details: 25 µM, 48 h, compared with J774.1
[10] = in vivo acute oral toxicity (OECD up and down); details: male, B6D2F1, mouse, 2000 mg/kg
Method: Briefly, healthy young adult male B6D2F1 mice (30 days old, 25 to 30 g) were used in this study. Initially, the compound was dissolved in the vehicle described above (3.4 section) and was administered at 2000 mg/kg, by orogastric cannula, to one animal. The animal was fasted, maintained, and observed for 48 h. If the mouse survives, another animal receives the same dose, and 48 h later, a third animal. If there are no toxicity signs the experiment is finished 14 days after administration, with the euthanasia of the animals according to the OECD guidelines. Observations of the general status of the organs were performed after sacrifice.

[11] = tested on: L. infantum amastigotes in human macrophages (THP-1); assay: human macrophages infected with L. infantum (amastigotes), infectivity index; type: cell-based; details: Leishmania infantum, two strains of L. infantum (reference strain and isolated from dogs)
[12] = tested on: L. amazonensis (IFLA/BR/1967/PH8); assay: in vivo anti-Leishmania study in cutaneous mice model; set-up: species or system Leishmania amazonensis; details: BALB/c mice, 50 mg/kg oral
solubility (qualitative) = type: physicochemical; details: for solubility in the conditions of the mammalian cell assay, in words: maximum dose tested 25 µM
[13] = liver fraction stability study (TLC); type: in vitro ADME; details: rat liver fractions, 400 µM, 37 °C, 4 h
[14] = tested on: L. infantum .uy (parasites isolated from two dogs in the first Leishmaniasis outbreak in Uruguay); assay: in vitro activity against L. infantum isolated from dogs in Uruguay; type: cell-based, Leishmania infantum; details: read-out: IC50± %SD (µM) promastigotes L. infantum uy*p/c
[15] = Leishmania infantum, promastigotes, maximum dose tested 25 µM, read-out: IC50 ± %SD (µM) L. infantum
[16] = Trypanosoma cruzi, TULAHUEN, epimastigotes, maximum dose tested 25 µM, read-out: IC50 ± %SD (µM) T. cruzi
[17] = Trypanosoma cruzi, TULAHUEN, Table 1S, read-out: IC50 ± %SD (µM) epimastigotes T. cruzi
[18] = Table 1S, read-out: IC50 ± %SD (µM) promastigotes L. infantum
[19] = Table 1S, one value printed for p/c
[20] = Table 1S, read-out: IC50 ± %SD (µM) epimastigotes T. cruzi

SMILES	IC50 [2] [µM]	SI J774.1/T. cruzi [2]	IC50 [3] [µM]	IC50 [4, 15] [µM]	IC50 [5] [µM]	melting point [°C]	IC50 [6] [µM]	IC50 [7, 16] [µM]	also measured
O=C(Cn1ccnc1[N+](=O)[O-])NCc1ccccc1 [Benznidazole, reference compound]	400 ± 4	57	–	–	–	–	–	–	% of Survivals (Chagas) [1]: 100%; Number of Parasites (Chagas) [1]: (0.01 ± 0.01) × 10^6 per mL blood; % of Reduction (Chagas) [1]: 96%
C[C@]12CC[C@H]3[C@@H](CC=C4CC(O)CC[C@@]43C)[C@@H]1CC[C@@H]2C(=O)/C=C/c1ccccc1Cl (stereo partly shown) [Compound 2]	100 ± 10	8	23 ± 5	> 25	> 25	149 to 151	23 ± 5	12 ± 3	activity against Leishmania infantum from Fiocruz collection, in words [4]: active; active against the strains isolated from Uruguayan dogs, in words [5]: not; SI J774.1/L. amazonensis [2]: 4
C/C(=N\NC(N)=S)[C@H]1CC[C@H]2[C@@H]3CC=C4CC(O)CC[C@]4(C)[C@H]3CC[C@]12C (stereo partly drawn) [Compound 8, 1-(3β-Hydroxy-pregn-5-ene-20E-ylidene)thiosemicarbazone]	50 ± 3	42	< 22	0.2 ± 0.1	0.2 ± 0.1	–	< 22	1.2 ± 0.3	IC50 ([8]; Trypanosoma cruzi, read-out: IC50 in vitro (abstract)): 0.2 µM; times more active than Miltefosine in vitro ([8]; against Leishmania): five times more active; times more active than Nfx and Bnz in vitro ([8]; against T. cruzi): 35; antiparasitic activity (active: IC50<25 µM), in words ([8]; all parasites/strains tested, maximum dose 25 µM): consistently active against all strains; % of Survivals (Chagas) [1]: 100%; Number of Parasites (Chagas) [1]: (0.14 ± 0.03) × 10^6 per mL blood; % of Reduction (Chagas) [1]: 62%; cytotoxicity on primary culture of macrophages, in words [9]: the same results were obtained; LD50 at 14 days [10]: > 2000 mg/kg; SI J774.1/L. amazonensis [2]: >2; SI J774.1/L. infantum ([2]; ratio IC50 murine macrophages / IC50 L. infantum promastigotes): 250; IC50 [11]: < 0.2 µM; % of Reduction (Leishmaniasis) [12]: 27%; % of Survivals (Leishmaniasis) [12]: 100%; Number of Parasites (Leishmaniasis) ([12]; parasites in the lesion at the end of the experiment): (21 ± 4) × 10^6; solubility in water, in words (solubility (qualitative)): poor solubility in water; metabolic stability in cytosolic and microsomal liver fraction [13]: stable
C=CCNC(=S)N/N=C(\C)[C@H]1CC[C@H]2[C@@H]3CC=C4CC(O)CC[C@]4(C)[C@H]3CC[C@]12C (stereo partly drawn) [Compound 9, 1-(3β-Hydroxy-pregn-5-ene-20E-ylidene)-4-Allylthiosemicarbazone]	25 ± 2	3	–	> 25	> 25	229 to 233	–	8 ± 2	activity against Leishmania infantum from Fiocruz collection, in words [4]: active; active against the strains isolated from Uruguayan dogs, in words [5]: not; solubility in the conditions of the mammalian cell assay, in words (solubility (qualitative)): poorly soluble; IC50 [7, 17]: 7.8 µM
C/C(=N\NC(=S)Nc1ccccc1)[C@H]1CC[C@H]2[C@@H]3CC=C4CC(O)CC[C@]4(C)[C@H]3CC[C@]12C (stereo partly drawn) [Compound 10, 1-(3β-Hydroxy-pregn-5-ene-20E-ylidene)-4-phenylthiosemicarbazone]	25 ± 5	1	–	> 25	> 25	215 to 217	–	25 ± 3	solubility in the conditions of the mammalian cell assay, in words (solubility (qualitative)): poorly soluble
C=CCn1c(-c2ccc(Br)cc2)csc1=NN=C(C)C1CCC2C3CC=C4CC(O)CCC4(C)C3CCC12C (stereo not drawn) [Compound 11, 1-(3β-Hydroxy-pregn-5-ene-20E-ylidene)-2-(3-allyl-4-(4-bromo-pheny)thiazol-2(3H)-ylidene)azine]	–	–	16 ± 3	> 25	> 25	179 to 183	16 ± 3	> 25	–
CSc1ccc(/C=C/C(=O)[C@H]2CCC3C4CC=C5C[C@@H](O)CC[C@]5(C)C4CC[C@@]32C)cc1 (stereo partly shown) [Compound 15]	–	–	> 25	–	–	–	–	–	IC50 [4, 18]: > 25 µM; IC50 [14, 19]: > 25 µM; IC50 [7, 20]: > 25 µM
CC(/C=C/C(=O)[C@H]1CC[C@H]2[C@@H]3CC=C4CC(O)CC[C@]4(C)[C@H]3CC[C@]12C)=C\c1ccco1 (stereo partly drawn) [Compound 16, (2E,4E)-5-(furan-2-yl)-1-((8S,9S,10R,13S,14S,17S)-3-hydroxy-10,13-dimethyl-2,3,4,7,8,9,10,11,12,13,14,15,16,17-tetradecahydro-1H-cyclopenta[a]phenanthren-17-yl)-4-methylpenta-2,4-dien-1-one]	–	–	23 ± 3	–	–	110 to 113	–	–	IC50 ([4]; Leishmania infantum, Table 1S, read-out: IC50 ± %SD (µM) promastigotes L. infantum): > 25 µM; IC50 ([14]; Leishmania infantum): > 25 µM; IC50 [7, 17]: > 25 µM
C[C@]12CC[C@H]3[C@@H](CC=C4CC(O)CC[C@@]43C)[C@@H]1CC[C@@H]2C(=O)/C=C/C=C/c1cccs1 (stereo partly drawn) [Compound 17, (2E,4E)-5-(thiofen-2-yl)-1-((8S,9S,10R,13S,14S,17S)-3-hydroxy-10,13-dimethyl-2,3,4,7,8,9,10,11,12,13,14,15,16,17-tetradecahydro-1H-cyclopenta[a]phenanthren-17-yl)penta-2,4-dien-1-one]	–	–	> 25	–	–	–	–	–	IC50 [4, 18]: > 25 µM; IC50 [14, 19]: > 25 µM; IC50 [7, 20]: > 25 µM
